Experimental data published in ChEMBL document CHEMBL1145498, “A systematic interaction map of validated kinase inhibitors with Ser/Thr kinases” (Proc Natl Acad Sci U S A, 2007).

What was measured:
[1] = molecular target: Serine/threonine-protein kinase 26 (Homo sapiens) (UniProt Q9P289)
[2] = molecular target: Death-associated protein kinase 3 (Homo sapiens) (UniProt O43293)
[3] = molecular target: Serine/threonine-protein kinase 38 (Homo sapiens) (UniProt Q15208)
[4] = molecular target: Casein kinase I isoform gamma-1 (Homo sapiens) (UniProt Q9HCP0)
Chain of Casein kinase I isoform gamma-1 (Homo sapiens) (Q9HCP0 whole entry, looked up, canonical isoform): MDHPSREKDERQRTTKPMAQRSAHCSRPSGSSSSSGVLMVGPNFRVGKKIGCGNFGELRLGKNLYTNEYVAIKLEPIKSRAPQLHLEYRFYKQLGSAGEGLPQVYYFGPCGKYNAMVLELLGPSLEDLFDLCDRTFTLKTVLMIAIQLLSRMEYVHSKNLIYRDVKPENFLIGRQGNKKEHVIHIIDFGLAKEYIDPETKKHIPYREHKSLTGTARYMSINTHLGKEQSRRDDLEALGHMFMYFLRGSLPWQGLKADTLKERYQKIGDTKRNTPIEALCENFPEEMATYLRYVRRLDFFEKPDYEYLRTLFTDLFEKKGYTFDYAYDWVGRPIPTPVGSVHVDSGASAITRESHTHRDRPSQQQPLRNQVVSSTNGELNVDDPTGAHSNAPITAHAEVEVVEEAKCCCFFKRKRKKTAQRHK

[5] = molecular target: T1, Serine/threonine-protein kinase 17A (Homo sapiens) (UniProt Q9UEE5)
T1 sequence (whole entry): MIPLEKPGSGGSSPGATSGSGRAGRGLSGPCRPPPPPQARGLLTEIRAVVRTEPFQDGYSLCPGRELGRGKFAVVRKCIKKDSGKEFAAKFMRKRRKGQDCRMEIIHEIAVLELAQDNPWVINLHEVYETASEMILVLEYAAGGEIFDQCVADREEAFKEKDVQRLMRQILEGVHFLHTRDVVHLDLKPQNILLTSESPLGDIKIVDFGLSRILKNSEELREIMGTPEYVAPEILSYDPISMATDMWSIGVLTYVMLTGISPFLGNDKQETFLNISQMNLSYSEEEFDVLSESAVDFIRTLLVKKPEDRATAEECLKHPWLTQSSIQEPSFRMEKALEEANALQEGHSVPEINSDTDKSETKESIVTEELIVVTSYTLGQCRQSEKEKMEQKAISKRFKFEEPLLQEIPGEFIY

[6] = molecular target: Cyclin-dependent kinase 2 (Homo sapiens, UniProt P24941)
[7] = molecular target: 5'-AMP-activated protein kinase catalytic subunit alpha-2 (Homo sapiens) (UniProt P54646)
Chain of 5'-AMP-activated protein kinase catalytic subunit alpha-2 (Homo sapiens) (P54646 whole entry, looked up): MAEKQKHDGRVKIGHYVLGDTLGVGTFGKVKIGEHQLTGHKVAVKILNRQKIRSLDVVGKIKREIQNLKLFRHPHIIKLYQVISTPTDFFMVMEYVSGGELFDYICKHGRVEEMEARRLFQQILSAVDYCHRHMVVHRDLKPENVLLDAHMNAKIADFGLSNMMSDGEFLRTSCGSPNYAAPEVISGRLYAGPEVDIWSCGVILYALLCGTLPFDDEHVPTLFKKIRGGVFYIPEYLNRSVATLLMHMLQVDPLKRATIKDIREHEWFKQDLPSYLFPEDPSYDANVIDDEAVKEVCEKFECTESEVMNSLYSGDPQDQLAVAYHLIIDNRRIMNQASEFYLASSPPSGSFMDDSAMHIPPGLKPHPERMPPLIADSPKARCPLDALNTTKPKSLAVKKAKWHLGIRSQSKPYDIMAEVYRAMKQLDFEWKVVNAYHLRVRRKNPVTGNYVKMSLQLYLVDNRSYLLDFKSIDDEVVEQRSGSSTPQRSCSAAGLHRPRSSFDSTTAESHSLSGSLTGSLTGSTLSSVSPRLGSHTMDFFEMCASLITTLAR

[8] = molecular target: cAMP-dependent protein kinase catalytic subunit alpha (Homo sapiens) (UniProt P17612)
[9] = molecular target: Serine/threonine-protein kinase 26 (Homo sapiens) (UniProt Q9P289); remark: listed apart in the source
[10] = molecular target: Dual specificity protein kinase CLK3 (Homo sapiens) (UniProt P49761)
Chain of Dual specificity protein kinase CLK3 (Homo sapiens) (P49761 whole entry, looked up): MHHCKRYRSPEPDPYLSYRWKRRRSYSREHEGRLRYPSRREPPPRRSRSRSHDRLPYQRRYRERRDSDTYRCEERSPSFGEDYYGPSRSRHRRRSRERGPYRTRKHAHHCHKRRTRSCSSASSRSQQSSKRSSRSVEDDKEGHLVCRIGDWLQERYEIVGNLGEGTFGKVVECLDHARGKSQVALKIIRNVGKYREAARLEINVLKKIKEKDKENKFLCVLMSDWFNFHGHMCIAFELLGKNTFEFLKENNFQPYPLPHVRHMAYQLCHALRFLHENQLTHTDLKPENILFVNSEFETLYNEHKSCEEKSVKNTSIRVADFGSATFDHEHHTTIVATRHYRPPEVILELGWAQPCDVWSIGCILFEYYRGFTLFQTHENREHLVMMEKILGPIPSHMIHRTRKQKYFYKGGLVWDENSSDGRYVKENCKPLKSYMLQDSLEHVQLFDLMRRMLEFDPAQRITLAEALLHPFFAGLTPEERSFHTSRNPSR

[11] = molecular target: T2, Serine/threonine-protein kinase Nek2 (Homo sapiens) (UniProt P51955)
T2 sequence (whole entry): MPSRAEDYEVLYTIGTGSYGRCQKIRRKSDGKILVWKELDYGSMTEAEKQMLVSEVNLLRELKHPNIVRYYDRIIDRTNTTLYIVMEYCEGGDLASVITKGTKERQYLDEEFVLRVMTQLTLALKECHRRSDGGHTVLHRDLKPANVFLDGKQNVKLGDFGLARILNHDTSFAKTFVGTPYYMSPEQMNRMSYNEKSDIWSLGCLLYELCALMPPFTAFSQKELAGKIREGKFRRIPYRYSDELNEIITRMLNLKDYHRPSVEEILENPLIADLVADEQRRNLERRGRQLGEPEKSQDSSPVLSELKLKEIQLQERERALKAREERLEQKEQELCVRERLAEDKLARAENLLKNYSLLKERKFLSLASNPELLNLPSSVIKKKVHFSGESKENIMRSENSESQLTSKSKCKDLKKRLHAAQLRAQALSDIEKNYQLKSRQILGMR

[12] = molecular target: T3, Serine/threonine-protein kinase VRK3 (Homo sapiens) (UniProt Q8IV63)
T3 sequence (whole entry): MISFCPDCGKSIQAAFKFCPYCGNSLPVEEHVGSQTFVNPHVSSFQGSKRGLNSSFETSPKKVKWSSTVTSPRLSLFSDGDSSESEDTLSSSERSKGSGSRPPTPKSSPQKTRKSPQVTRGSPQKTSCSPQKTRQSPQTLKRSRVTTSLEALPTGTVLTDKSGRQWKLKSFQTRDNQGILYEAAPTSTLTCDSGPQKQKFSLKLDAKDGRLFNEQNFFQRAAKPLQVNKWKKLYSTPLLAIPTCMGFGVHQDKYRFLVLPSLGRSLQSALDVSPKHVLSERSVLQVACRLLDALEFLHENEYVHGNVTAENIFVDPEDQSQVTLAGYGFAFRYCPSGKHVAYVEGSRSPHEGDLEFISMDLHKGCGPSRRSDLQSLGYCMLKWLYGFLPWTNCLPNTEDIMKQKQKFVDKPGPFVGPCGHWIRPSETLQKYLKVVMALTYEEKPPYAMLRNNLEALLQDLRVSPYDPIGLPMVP

[13] = molecular target: Serine/threonine-protein kinase PAK 6 (Homo sapiens) (UniProt Q9NQU5)
Chain of Serine/threonine-protein kinase PAK 6 (Homo sapiens) (Q9NQU5 whole entry, looked up): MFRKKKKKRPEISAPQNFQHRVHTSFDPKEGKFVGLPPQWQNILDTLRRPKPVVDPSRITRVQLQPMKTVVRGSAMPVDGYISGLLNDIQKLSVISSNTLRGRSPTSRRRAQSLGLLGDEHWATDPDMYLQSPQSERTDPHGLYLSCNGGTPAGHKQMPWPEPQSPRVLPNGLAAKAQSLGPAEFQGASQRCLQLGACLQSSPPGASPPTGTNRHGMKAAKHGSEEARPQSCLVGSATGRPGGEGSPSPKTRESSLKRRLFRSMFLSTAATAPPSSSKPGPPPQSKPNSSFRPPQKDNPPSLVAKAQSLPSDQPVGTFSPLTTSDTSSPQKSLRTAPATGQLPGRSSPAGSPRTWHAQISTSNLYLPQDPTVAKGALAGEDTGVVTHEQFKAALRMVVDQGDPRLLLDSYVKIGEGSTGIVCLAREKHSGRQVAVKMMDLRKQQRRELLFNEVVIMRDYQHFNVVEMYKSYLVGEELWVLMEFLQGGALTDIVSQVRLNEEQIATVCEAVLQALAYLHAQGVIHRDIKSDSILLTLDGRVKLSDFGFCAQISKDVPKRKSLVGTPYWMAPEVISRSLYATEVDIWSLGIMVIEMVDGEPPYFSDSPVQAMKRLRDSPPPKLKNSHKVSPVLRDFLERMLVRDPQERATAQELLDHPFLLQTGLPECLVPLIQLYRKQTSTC

[14] = molecular target: T4, Serine/threonine-protein kinase PLK4 (Homo sapiens) (UniProt O00444)
T4 sequence (whole entry): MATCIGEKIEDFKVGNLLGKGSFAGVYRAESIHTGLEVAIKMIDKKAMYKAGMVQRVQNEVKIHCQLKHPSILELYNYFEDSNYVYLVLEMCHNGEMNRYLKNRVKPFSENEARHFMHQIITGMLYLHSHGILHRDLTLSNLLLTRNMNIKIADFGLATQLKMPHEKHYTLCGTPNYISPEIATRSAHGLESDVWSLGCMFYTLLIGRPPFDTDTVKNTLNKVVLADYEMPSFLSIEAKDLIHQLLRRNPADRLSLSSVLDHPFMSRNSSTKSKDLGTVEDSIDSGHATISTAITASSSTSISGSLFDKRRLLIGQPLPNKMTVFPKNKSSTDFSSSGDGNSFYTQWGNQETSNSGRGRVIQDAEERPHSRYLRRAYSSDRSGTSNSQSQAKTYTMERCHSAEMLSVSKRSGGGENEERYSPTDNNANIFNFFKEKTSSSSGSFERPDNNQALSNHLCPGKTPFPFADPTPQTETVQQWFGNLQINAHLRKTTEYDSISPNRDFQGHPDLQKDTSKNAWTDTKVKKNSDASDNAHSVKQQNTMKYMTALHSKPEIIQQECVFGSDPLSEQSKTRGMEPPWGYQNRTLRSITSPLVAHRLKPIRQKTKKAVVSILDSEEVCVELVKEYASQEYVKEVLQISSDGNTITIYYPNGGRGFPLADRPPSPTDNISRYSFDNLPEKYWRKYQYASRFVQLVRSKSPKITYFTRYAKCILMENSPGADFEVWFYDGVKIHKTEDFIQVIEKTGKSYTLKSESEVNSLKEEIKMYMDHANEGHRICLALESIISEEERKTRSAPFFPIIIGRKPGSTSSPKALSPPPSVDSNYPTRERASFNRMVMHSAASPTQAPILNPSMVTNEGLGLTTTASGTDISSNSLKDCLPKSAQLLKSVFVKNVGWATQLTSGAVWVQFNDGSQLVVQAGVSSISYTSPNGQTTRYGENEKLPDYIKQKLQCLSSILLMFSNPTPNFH

Chain of Serine/threonine-protein kinase 38 (Homo sapiens) (Q15208 2-465 limits assumed): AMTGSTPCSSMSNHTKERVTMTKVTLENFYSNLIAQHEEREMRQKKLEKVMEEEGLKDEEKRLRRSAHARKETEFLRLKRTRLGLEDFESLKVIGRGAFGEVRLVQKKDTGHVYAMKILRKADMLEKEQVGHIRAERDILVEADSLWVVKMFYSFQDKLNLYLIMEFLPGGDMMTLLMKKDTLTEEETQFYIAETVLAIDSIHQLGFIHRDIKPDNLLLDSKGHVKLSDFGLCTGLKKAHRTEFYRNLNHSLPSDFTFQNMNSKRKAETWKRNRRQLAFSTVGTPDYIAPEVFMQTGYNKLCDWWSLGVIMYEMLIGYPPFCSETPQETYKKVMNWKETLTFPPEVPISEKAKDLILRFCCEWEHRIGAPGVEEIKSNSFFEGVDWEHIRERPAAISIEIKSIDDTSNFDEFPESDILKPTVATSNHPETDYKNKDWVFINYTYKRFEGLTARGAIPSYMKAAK
Chain of Death-associated protein kinase 3 (Homo sapiens) (O43293 whole entry, looked up): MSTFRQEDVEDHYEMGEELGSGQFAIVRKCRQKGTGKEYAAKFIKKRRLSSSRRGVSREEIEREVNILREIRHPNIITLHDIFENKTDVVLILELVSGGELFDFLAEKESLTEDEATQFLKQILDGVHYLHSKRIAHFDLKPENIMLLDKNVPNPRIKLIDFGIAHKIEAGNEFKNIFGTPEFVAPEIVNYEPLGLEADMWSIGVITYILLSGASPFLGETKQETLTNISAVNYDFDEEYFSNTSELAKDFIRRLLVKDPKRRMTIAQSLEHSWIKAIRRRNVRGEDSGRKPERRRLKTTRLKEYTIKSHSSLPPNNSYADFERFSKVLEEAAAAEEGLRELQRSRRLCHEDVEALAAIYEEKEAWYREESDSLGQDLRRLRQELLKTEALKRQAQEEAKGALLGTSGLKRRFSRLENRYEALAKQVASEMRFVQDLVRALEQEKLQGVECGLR
Chain of Serine/threonine-protein kinase 26 (Homo sapiens) (Q9P289 2-416 limits assumed): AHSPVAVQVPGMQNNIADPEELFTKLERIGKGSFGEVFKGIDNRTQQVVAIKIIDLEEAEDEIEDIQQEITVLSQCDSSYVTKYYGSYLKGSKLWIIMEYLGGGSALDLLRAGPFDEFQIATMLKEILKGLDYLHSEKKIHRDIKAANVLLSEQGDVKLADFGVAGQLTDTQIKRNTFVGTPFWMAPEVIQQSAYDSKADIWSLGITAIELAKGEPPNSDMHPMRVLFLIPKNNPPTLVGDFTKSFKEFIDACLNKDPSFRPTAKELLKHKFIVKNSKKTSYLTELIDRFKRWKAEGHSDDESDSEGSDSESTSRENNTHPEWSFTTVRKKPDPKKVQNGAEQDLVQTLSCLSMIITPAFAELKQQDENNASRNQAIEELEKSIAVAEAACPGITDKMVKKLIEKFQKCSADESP

Row | SMILES | ΔTm [1] [°C] | ΔTm [2] [°C] | ΔTm [3] [°C] | ΔTm [4] [°C] | ΔTm [5] [°C] | ΔTm [6] [°C] | ΔTm [7] [°C] | ΔTm [8] [°C] | ΔTm [9] [°C] | ΔTm [10] [°C] | ΔTm [11] [°C] | ΔTm [12] [°C] | ΔTm [13] [°C] | ΔTm [14] [°C]
1 | Cc1nc2sccn2c(=O)c1CCN1CCC(=C(c2ccccc2)c2ccc(F)cc2)CC1 | 0.4 | 4.2 | 0.6 | -0.2 | 8.8 | 1.2 | -0.1 | 1.6 | -0.1 | 3 | 0.1 | 0 | 0.8 | 2.8
2 | CCN(CC)CCNC(=O)c1c(C)[nH]c(/C=C2\C(=O)Nc3ccc(Cl)cc32)c1C [SU-11652] | 5.8 | 5.9 | 2.7 | 4.3 | 11 | 0.9 | 7 | 2 | 3.8 | 2.2 | 5.1 | 0.3 | 4.4 | 7.8
3 | O=C1Nc2ccccc2/C1=C\c1ccc[nH]1 | 3.9 | -0.2 | 2.7 | 1.4 | 11 | 3.4 | 3.2 | 1.7 | 3.5 | 0.5 | 1.7 | 0.1 | 1.6 | 6
4 | O=C1Cc2c([nH]c3ccc(Br)cc23)-c2ccccc2N1 [KENPAULLONE] | 1.5 | 0.4 | 1.1 | 0.3 | 5.9 | 3.6 | 1.1 | 1 | 1.4 | 0.8 | 1.3 | -0.2 | 3.7 | 7.1
5 | O=c1c2ccccc2[nH]c(=S)n1CCN1CCC(=C(c2ccc(F)cc2)c2ccc(F)cc2)CC1 [DIACYLGLYCEROL KINASE INHIBITOR II] | 2.1 | 1.6 | 0.2 | -0.2 | 0.5 | 0.9 | -3.3 | 0.8 | 2.4 | 0.2 | 1.5 | -0.6 | -0.1 | 0.8
6 | NCCNS(=O)(=O)c1cccc2c(Cl)cccc12 | -0.1 | 3.2 | -0.1 | 0.5 | 1 | 0.1 | -0.2 | 2.5 | 0 | -0.2 | 0.7 | 0.3 | 0.2 | 0.6
7 | C[S+]([O-])c1ccc(CSc2nc(-c3ccc(F)cc3)c(-c3ccncc3)[nH]2)cc1 (configuration not stated) | 0 | 0.4 | 0.4 | 0.2 | 0 | 0.5 | -0.3 | -0.2 | 0.4 | -0.1 | 0.5 | -0.8 | 0 | 0.3
8 | CC(=O)O/N=C1/C(=C2/C(=O)Nc3cc(Br)ccc32)Nc2ccccc21 [6-BROMOINDIRUBIN-3'-ACETOXIME] | 0.1 | -1.3 | 0.9 | 0.6 | 3 | 3.2 | 2 | 3 | -0.4 | -0.4 | 1.9 | 0.7 | 0.3 | 6.7
9 | CC(C)(C)n1nc(-c2ccc(Cl)cc2)c2c(N)ncnc21 | -0.3 | -1.1 | 0.7 | 1 | 0.1 | 0.7 | 0.7 | 2.3 | -0.5 | 0.7 | 0.3 | -0.2 | -0.1 | 4.1
10 | C/C(O)=C(\C#N)C(=O)Nc1cc(Br)ccc1Br | -0.1 | 0.7 | -0.1 | 0.7 | 0.6 | 1 | 0.6 | 1.4 | 0.2 | 0.3 | 0.9 | -0.3 | -0.2 | 1.1
11 | COc1cc(/C=C/C(=O)CC(=O)/C=C/c2ccc(O)c(OC)c2)ccc1O [CURCUMIN] | 2.9 | 1.8 | 2.5 | 4.5 | 7.4 | 1.9 | -0.1 | 3.4 | 1.7 | 3.6 | 1.1 | 1.3 | 1.6 | 3.3
12 | c1ccc(-c2n[nH]c3c2oc2ccccc23)cc1 | 3.4 | -0.9 | 1.4 | 0.8 | 1 | 0.7 | 0.5 | 2.8 | 0.6 | 0 | 0.1 | 1.8 | -0.3 | 1.2
13 | COc1ccc(CNc2nc(N(CCO)CCO)nc3c2ncn3C(C)C)cc1 | 1 | 0.7 | 0.4 | 1.8 | -0.2 | 1.6 | 0.6 | 0.5 | 0.8 | 0.6 | 1 | 0.4 | 1.2 | 0.5
